According to patent US12071404B2, “Aza (indole)-, benzothiophene-, and benzofuran-3-sulfonamides” (UCB Pharma GmbH, priority 2016, dated 2024):

Columns and labels:
[1] = target: T1, GPR17 (Homo sapiens, UniProt Q13304); assay: Calcium mobilization functional assay (GPR17 Ca2+ assay); format: cell-based; set-up: host or cells: Flp-In T-REx CHO; details: CHO hGPR17 cells, inhibition of 50 nM MDL29,951, Calcium 5 dye, FLIPR; read-out: Ca2+ assay pIC50 (converted)
Outline: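 pIC50 values were fitted with a 4-parameter logistic curve. They reflect test-compound inhibition of cytosolic Ca2+ release evoked by 50 nM MDL29,951, tracked as Calcium 5 fluorescence at room temperature. Cells were CHO Flp-In T-REx stably carrying human GPR17, induced with doxycycline 1 μg/mL for 16-20 h.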

[2] = target: T1, GPR17; assay: cAMP accumulation functional assay (HTRF, Schild analysis); format: cell-based; set-up: host or cells: Flp-In T-REx CHO; details: CHO hGPR17 cells, Schild analysis vs MDL29,951, 5 μM forskolin, read-out: cAMP assay pA2 (converted)
Protocol: Flp-In T-REx CHO cells stably expressing human GPR17 receptor (CHO hGPR17) from Evi Kostenis' lab (Bonn University, Germany) were cultured at 37° C. in a humidified atmosphere of 5% CO2. Cells were grown in DMEM with Nutrient Mixture F-12 supplemented with hygromycin B (500 μg/mL) and blasticidin (30 μg/mL). Expression from the Flp-In locus was induced by treatment with doxycycline (1 μg/mL) for 16-20 h prior assays.
GPR17 activation can also recruit Gi-type G-protein signaling, resulting in a decrease of intracellular cyclic adenosine monophosphate (cAMP). Intracellular cAMP changes can be measured using the HTRF cAMP dynamic assay kit from CisBio (Codolet, France). Using homogenous time-resolved fluorescence technology (HTRF), the assay is based on competition between native cAMP produced by cells and cAMP labelled with the dye d2. The tracer binding was determined by an anti-cAMP antibody labeled with cryptate.
CHO hGPR17 were detached with PBS containing EDTA and dispatched in black 384-well plates with 5,000 cells per well. Cells were first incubated for 30 minutes at room temperature in HBSS Hepes (pH 7.4) containing vehicle or varying concentrations of test GPR17 antagonist/inverse agonist compounds. […] After 60 minutes incubation at room temperature, the reaction is terminated and the cells lysed by adding the d2 detection reagent and the cryptate reagent in 10 μL lysis buffer each according to manufacturer's instructions. After 60 minutes incubation, changes in cAMP concentrations are measured according to manufacturer's instructions using an Envision plate reader with laser excitation. All incubations were performed in duplicate. Data was analyzed using GraphPad Prism software using the 4-parameter logistic equation to measure MDL29,951 pEC50s in absence and presence of GPR17 antagonist/inverse agonist test compounds. Dose ratio (DR) were plotted against antagonist concentrations and Schild analysis provided estimated affinity pA2 of GPR17 antagonist/inverse agonist test compounds.
The activities of the Example compounds tested are depicted in the table below. The activity ranges A, B and C refer to pA2 values in the cAMP assay as follows: “A”: pA2<7.5, “B”: pA2 7.5<x≤8.5, “C”: pA2>8.5.

T1 sequence (Q13304 whole entry): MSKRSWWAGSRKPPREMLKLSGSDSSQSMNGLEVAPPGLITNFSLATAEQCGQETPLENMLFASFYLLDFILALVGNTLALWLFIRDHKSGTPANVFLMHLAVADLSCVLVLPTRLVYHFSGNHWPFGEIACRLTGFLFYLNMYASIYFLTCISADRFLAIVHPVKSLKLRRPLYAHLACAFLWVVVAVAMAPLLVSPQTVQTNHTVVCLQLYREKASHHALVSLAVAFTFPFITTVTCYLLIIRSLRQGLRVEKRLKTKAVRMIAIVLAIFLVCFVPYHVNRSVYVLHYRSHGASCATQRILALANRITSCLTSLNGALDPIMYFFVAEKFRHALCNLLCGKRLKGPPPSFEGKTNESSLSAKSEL

SMILES | IC50 [1] [nM] | Kb [2] [nM]
C#Cc1ccc(NS(=O)(=O)c2c[nH]c3cc(OC)ccc23)c(F)c1 [Compound I-274, N-(4-ethynyl-2-fluorophenyl)-6-methoxy-1H-indole-3-sulfonamide] | 3.16 to 31.6 | 3.16 to 31.6
Cc1cc(F)c(NS(=O)(=O)c2c[nH]c3nc(Cl)ccc23)cc1F [Compound I-268, 6-chloro-N-(2,5-difluoro-4-methylphenyl)-1H-pyrrolo[2,3-b]pyridine-3-sulfonamide] | < 3.16 | < 3.16
COc1nc(NS(=O)(=O)c2c[nH]c3cc(Cl)ccc23)c(F)cc1Cl [Compound I-254, 6-chloro-N-(5-chloro-3-fluoro-6-methoxypyridin-2-yl)-1H-indole-3-sulfonamide] | < 3.16 | < 3.16
N#Cc1ccc(NS(=O)(=O)c2c[nH]c3nc(Cl)ccc23)c(F)c1 [Compound I-108, 6-chloro-N-(4-cyano-2-fluorophenyl)-1H-pyrrolo[2,3-b]pyridine-3-sulfonamide] | 3.16 to 31.6 | 3.16 to 31.6
O=S(=O)(Nc1ccc(Cl)cc1)c1c[nH]c2cc(Cl)ccc12 [Compound I-24, 6-chloro-N-(4-chlorophenyl)-1H-indole-3-sulfonamide] | > 31.6 | > 31.6
O=S(=O)(Nc1ncc(F)cc1F)c1c[nH]c2cc(Cl)ccc12 [Compound I-302, 6-chloro-N-(3,5-difluoropyridin-2-yl)-1H-indole-3-sulfonamide] | 3.16 to 31.6 | 3.16 to 31.6
O=S(=O)(Nc1cc(F)c(I)cc1F)c1c[nH]c2cc(Cl)ccc12 [Compound I-308, 6-chloro-N-(2,5-difluoro-4-iodophenyl)-1H-indole-3-sulfonamide] | < 3.16 | < 3.16
O=S(=O)(Nc1cc(F)ccc1F)c1c[nH]c2cc(Cl)ccc12 [Compound I-9, 6-chloro-N-(2,5-difluorophenyl)-1H-indole-3-sulfonamide] | 3.16 to 31.6 | 3.16 to 31.6
O=S(=O)(Nc1ccc(F)c2nsnc12)c1c[nH]c2nc(Cl)ccc12 [Compound I-226, 6-chloro-N-(7-fluoro-2,1,3-benzothiadiazol-4-yl)-1H-pyrrolo[2,3-b]pyridine-3-sulfonamide] | > 31.6 | > 31.6
COc1cc(C#N)c(F)cc1NS(=O)(=O)c1c[nH]c2cc(Cl)ccc12 [Compound I-286, 6-chloro-N-(4-cyano-5-fluoro-2-methoxyphenyl)-1H-indole-3-sulfonamide] | < 3.16 | < 3.16
O=S(=O)(Nc1cccc2nsnc12)c1c[nH]c2cc(Cl)ccc12 [Compound I-109, N-(2,1,3-benzothiadiazol-4-yl)-6-chloro-1H-indole-3-sulfonamide] | < 3.16 | 3.16 to 31.6
O=S(=O)(Nc1cccc2c1OC(F)(F)O2)c1c[nH]c2cc(Cl)ccc12 [Compound I-123, 6-chloro-N-(2,2-difluoro-1,3-benzodioxol-4-yl)-1H-indole-3-sulfonamide] | 3.16 to 31.6 | 3.16 to 31.6
COc1nc(NS(=O)(=O)c2c[nH]c3cc(Cl)ccc23)c(F)cc1CC#N [Compound I-255, 6-chloro-N-[5-(cyanomethyl)-3-fluoro-6-methoxypyridin-2-yl]-1H-indole-3-sulfonamide] | < 3.16 | < 3.16
N#Cc1ccc(NS(=O)(=O)c2c[nH]c3cc(OCC(F)(F)F)ccc23)c(F)c1 [Compound I-294, N-(4-cyano-2-fluorophenyl)-6-(2,2,2-trifluoroethoxy)-1H-indole-3-sulfonamide] | 3.16 to 31.6 | 3.16 to 31.6
O=S(=O)(Nc1ccc(I)cc1F)c1c[nH]c2nc(Br)ccc12 [Compound I-104, 6-bromo-N-(2-fluoro-4-iodophenyl)-1H-pyrrolo[2,3-b]pyridine-3-sulfonamide] | < 3.16 | < 3.16
COc1ccc2c(S(=O)(=O)Nc3ccc(C#N)cc3F)c[nH]c2c1 [Compound I-112, N-(4-cyano-2-fluorophenyl)-6-methoxy-1H-indole-3-sulfonamide] | 3.16 to 31.6 | 3.16 to 31.6

SMILES | IC50 [1] [nM] | Kb [2] [nM]
O=S(=O)(Nc1cc(Cl)ccc1F)c1c[nH]c2cc(Cl)ccc12 [Compound I-4, 6-chloro-N-(5-chloro-2-fluorophenyl)-1H-indole-3-sulfonamide] | > 31.6 | 3.16 to 31.6
CCOC(=O)CCc1cc(F)c(NS(=O)(=O)c2c[nH]c3cc(Cl)ccc23)nc1F [Compound I-331, ethyl 3-(6-{[(6-chloro-1H-indol-3-yl)sulfonyl]amino}-2,5-difluoropyridin-3-yl)propanoate] | < 3.16 | < 3.16
O=C1OCc2cc(F)c(NS(=O)(=O)c3c[nH]c4nc(Cl)ccc34)cc21 [Compound I-284, 6-chloro-N-(6-fluoro-3-oxo-1,3-dihydro-2-benzofuran-5-yl)-1H-pyrrolo[2,3-b]pyridine-3-sulfonamide] | 3.16 to 31.6 | > 31.6
COc1ccc2c(S(=O)(=O)Nc3ccc(C(F)(F)F)cc3F)c[nH]c2c1 [Compound I-287, N-(2-fluoro-4-(trifluoromethyl)phenyl)-6-methoxy-1H-indole-3-sulfonamide] | < 3.16 | 3.16 to 31.6
N#Cc1ccc(NS(=O)(=O)c2c[nH]c3cc(-c4ccccc4)ccc23)c(F)c1 [Compound I-233, N-(4-cyano-2-fluorophenyl)-6-phenyl-1H-indole-3-sulfonamide] | 3.16 to 31.6 | > 31.6
COc1nc(NS(=O)(=O)c2c[nH]c3c(OC(F)F)c(Cl)ccc23)c(F)cc1F [Compound I-366, 6-chloro-7-(difluoromethoxy)-N-(3,5-difluoro-6-methoxypyridin-2-yl)-1H-indole-3-sulfonamide] | 3.16 to 31.6 | 3.16 to 31.6
COc1cc(C#N)ccc1NS(=O)(=O)c1c[nH]c2cc(Cl)ccc12 [Compound I-126, 6-chloro-N-(4-cyano-2-methoxyphenyl)-1H-indole-3-sulfonamide] | 3.16 to 31.6 | 3.16 to 31.6
N#Cc1ccc(NS(=O)(=O)c2c[nH]c3cc(C(F)(F)F)ccc23)c(F)c1 [Compound I-189, N-(4-cyano-2-fluorophenyl)-6-(trifluoromethyl)-1H-indole-3-sulfonamide] | < 3.16 | < 3.16
Cc1cnc(NS(=O)(=O)c2c[nH]c3cc(Cl)ccc23)c(F)c1 [Compound I-279, 6-chloro-N-(3-fluoro-5-methylpyridin-2-yl)-1H-indole-3-sulfonamide] | 3.16 to 31.6 | 3.16 to 31.6
COc1cc(C#N)c(F)cc1NS(=O)(=O)c1c[nH]c2nc(Cl)ccc12 [Compound I-292, 6-chloro-N-(4-cyano-5-fluoro-2-methoxyphenyl)-1H-pyrrolo[2,3-b]pyridine-3-sulfonamide] | 3.16 to 31.6 | 3.16 to 31.6
N#Cc1ccc(NS(=O)(=O)c2c[nH]c3cc(Cl)ccc23)cc1 [Compound I-12, 6-chloro-N-(4-cyanophenyl)-1H-indole-3-sulfonamide] | < 3.16 | 3.16 to 31.6
Cc1ccc2c(S(=O)(=O)Nc3ccc(Br)cc3F)c[nH]c2c1 [Compound I-173, N-(4-bromo-2-fluorophenyl)-6-methyl-1H-indole-3-sulfonamide] | 3.16 to 31.6 | 3.16 to 31.6
COc1cc(C(F)(F)F)cnc1NS(=O)(=O)c1c[nH]c2cc(Cl)ccc12 [Compound I-344, 6-chloro-N-[3-methoxy-5-(trifluoromethyl)pyridin-2-yl]-1H-indole-3-sulfonamide] | 3.16 to 31.6 | 3.16 to 31.6
O=S(=O)(Nc1cccc2nonc12)c1c[nH]c2c1ccc1cccnc12 [Compound I-119, N-(2,1,3-benzoxadiazol-4-yl)-1H-pyrrolo[3,2-h]quinoline-3-sulfonamide] | 3.16 to 31.6 | 3.16 to 31.6
O=S(=O)(Nc1cc(F)c(Br)cc1F)c1c[nH]c2c1ccc1cccnc12 [Compound I-305, N-(4-bromo-2,5-difluorophenyl)-1H-pyrrolo[3,2-h]quinoline-3-sulfonamide] | < 3.16 | < 3.16
N#Cc1ccc(NS(=O)(=O)c2c[nH]c3ncc(I)cc23)cc1 [Compound I-79, N-(4-cyanophenyl)-5-iodo-1H-pyrrolo[2,3-b]pyridine-3-sulfonamide] | 3.16 to 31.6 | > 31.6
